Measurements taken from the NIST ThermoML archive (doi:10.1021/je7003758).

Assay: xn = mol fraction of the nth substance listed
Conditions: 298.15 K, Liquid

ClCCCCCl [1,4-dichlorobutane] + CN1CCCC1=O
mass density [kg/m3]
Conditions	x2 = 0.1039	x2 = 0.2034	x2 = 0.3036	x2 = 0.402	x2 = 0.5025	x2 = 0.5968	x2 = 0.7003	x2 = 0.8008	x2 = 0.8971
100 kPa	1123.8	1114.2	1104.3	1094.4	1084	1073.9	1062.7	1051.4	1040.2
500 kPa	1124.1	1114.6	1104.6	1094.7	1084.2	1074.2	1062.9	1051.6	1040.4
1000 kPa	1124.5	1114.9	1104.9	1095	1084.5	1074.5	1063.2	1051.9	1040.7
1500 kPa	1124.9	1115.2	1105.3	1095.3	1084.8	1074.8	1063.6	1052.2	1041
2000 kPa	1125.2	1115.6	1105.7	1095.7	1085.2	1075.1	1063.8	1052.5	1041.3
2500 kPa	1125.5	1115.9	1106	1096	1085.5	1075.4	1064.1	1052.8	1041.6
2900 kPa	–	–	1106.3	–	–	–	–	–	–
3000 kPa	1125.9	1116.3	–	1096.3	1085.8	1075.7	1064.4	1053	1041.8
3500 kPa	1126.3	1116.6	1106.6	1096.7	1086.1	1076	1064.7	1053.4	1042.1
4000 kPa	1126.7	1117	1107	1097	1086.4	1076.4	1065	1053.6	1042.3
4500 kPa	1127	1117.3	1107.4	1097.3	1086.8	1076.6	1065.3	1053.9	1042.7
4900 kPa	1127.3	–	–	–	–	1076.9	–	–	–
5000 kPa	–	1117.7	1107.7	1097.6	1087.1	–	1065.6	1054.2	1042.9
5500 kPa	1127.7	1118	1108	1098	1087.4	1077.2	1065.9	1054.4	1043.1
5900 kPa	1128.1	–	–	–	1087.7	–	–	–	–
6000 kPa	–	1118.4	1108.3	1098.3	–	1077.6	1066.2	1054.8	1043.5
6500 kPa	1128.4	1118.8	1108.7	1098.6	1088	1077.8	1066.5	1055	1043.7
7000 kPa	1128.8	1119.1	1109	1099	1088.4	1078.2	1066.8	1055.3	1044
7400 kPa	–	–	–	–	–	–	–	–	1044.2
7500 kPa	–	1119.5	1109.4	1099.3	1088.6	1078.5	1067.1	1055.6	–
7600 kPa	1129.2	–	–	–	–	–	–	–	–
7900 kPa	–	–	–	–	1089	–	–	–	–
8000 kPa	1129.5	1119.8	1109.7	1099.6	–	1078.8	1067.4	1055.9	1044.5
8400 kPa	1129.8	–	–	–	–	–	–	–	–
8500 kPa	–	1120.1	1110.1	1099.9	1089.3	1079.1	1067.6	1056.2	1044.8
8900 kPa	1130.2	–	–	–	–	–	–	–	–
9000 kPa	–	1120.5	1110.4	1100.3	1089.6	1079.4	1068	1056.4	1045.1
9400 kPa	–	–	–	–	–	–	–	–	1045.3
9500 kPa	1130.6	1120.8	1110.7	1100.3	1089.9	1079.7	1068.2	1056.7	–
10000 kPa	1131	1121.3	1111.1	1101	1090.3	1080	1068.6	1057.1	1045.6
10500 kPa	1131.4	1121.6	1111.4	1101.3	1090.6	1080.3	1068.9	1057.3	1045.9
11000 kPa	1131.7	1122	1111.8	1101.6	1090.9	1080.6	1069.2	1057.6	1046.1
11500 kPa	1132.1	1122.3	1112.1	1101.9	1091.2	1080.9	1069.4	1057.9	1046.4
11900 kPa	–	–	–	–	–	–	–	–	1046.6
12000 kPa	1132.5	1122.6	1112.4	1102.2	1091.6	1081.2	1069.7	1058.2	–
12400 kPa	–	–	–	–	–	–	–	–	1046.9
12500 kPa	1132.8	1122.9	1112.8	1102.6	1091.9	1081.5	1070	1058.4	–
12900 kPa	–	–	–	–	1092.2	–	–	–	–
13000 kPa	1133.1	1123.3	1113.1	1102.9	–	1081.8	1070.3	1058.7	1047.2
13400 kPa	–	–	–	–	–	–	–	1059	–
13500 kPa	1133.5	1123.6	1113.4	1103.2	1092.5	1082.1	1070.5	–	1047.4
13900 kPa	–	–	1113.7	–	–	–	–	–	–
14000 kPa	1133.8	1124	–	1103.5	1092.8	1082.4	1070.9	1059.2	1047.7
14400 kPa	–	–	–	–	–	–	1071.1	1059.5	–
14500 kPa	1134.2	1124.3	1114	1103.8	1093.1	1082.6	–	–	1048
14900 kPa	–	–	–	–	1093.3	–	–	–	–
15000 kPa	1134.5	1124.7	1114.4	1104.1	–	1083	1071.5	1059.7	1048.3
15400 kPa	–	–	–	–	1093.6	–	–	–	–
15500 kPa	1134.8	1125	1114.7	1104.4	–	1083.3	1071.7	1060	1048.6
15900 kPa	–	–	–	–	–	–	–	–	1048.8
16000 kPa	1135.2	1125.3	1115.1	1104.8	1094	1083.5	1072	1060.3	–
16400 kPa	–	–	–	1105	–	–	–	–	–
16500 kPa	1135.5	1125.6	1115.4	–	1094.2	1083.8	1072.2	1060.6	1049
16900 kPa	–	–	1115.6	–	–	–	–	–	–
17000 kPa	1135.9	1126	–	1105.4	1094.5	1084.1	1072.5	1060.8	1049.3
17500 kPa	1136.2	1126.3	1116	1105.7	1094.8	1084.4	1072.8	1061.1	1049.5
18000 kPa	1136.5	1126.6	1116.3	1106	1095.1	1084.7	1073.1	1061.3	1049.8
18500 kPa	1136.9	1126.9	1116.6	1106.2	1095.4	1085	1073.3	1061.6	1050.1
19000 kPa	1137.3	1127.3	1117	1106.6	1095.8	1085.3	1073.7	1061.9	1050.3
19500 kPa	1137.6	1127.6	1117.3	1106.9	1096	1085.6	1074	1062.2	1050.6
20000 kPa	1138	1128	1117.7	1107.4	1096.5	1086	1074.5	1062.4	1050.9
